Results taken from patent US8367602B2, “Consensus peptides and a method for inducing biomineralization” (Corticalis AS, priority 2006, dated 2013).
Several values for one entry are separate records, joined by “and”; a condition that tells them apart may be missing. Equal entries are not always repeated. Ends that are not written are not given here.

Tests used:
[1] = Mineral precipitation (mfu by SEM) on peptide-coated coin shaped titanium specimens, Example 1
Method: Eight coin shaped implants with a diameter of 6.25 mm, was attached to an titanium electrode and submerged in an sterile electrolyte containing 0.5 M NaCl, adjusted to pH 8.0 by the use of 1.0 M NaOH, and a synthetic poly-proline peptide designed to stimulate nucleation of calcium phosphate crystals. The peptide, having a pI of 5.82, had the following sequence: PLV PSY PLV PSY PLV PSY PYP PLPP (SEQ ID NO:3), and was applied at a final concentration of 0.01 mg/ml in the electrolyte. The electrode was attached to the positive outlet of a power supply, and an electrical current of 10 Volts at 100 mA at a cell temperature of 40 degrees Celsius, was applied for eight hours. The electrolytic process produced a thin peptide coating onto the oxidized titanium surface visible as a greyish precipitation. After coating the titanium specimens were rinsed in sterile water and subsequently put into sterile glass containers where they were allowed to air-dry. Eight identical titanium specimens, treated identically as the test specimens with the exception that no peptides were added to the electrolyte, was produced as controls. After drying, the titanium specimens (peptide coated and controls) were submerged in 50 ml of a saturated solution of calcium phosphate at 50 degrees Celsius. The solution was then allowed to cool to room temperature and incubated at 25 degrees Celsius for 48 hours. The titanium specimens were then removed from the solution, rinsed briefly in sterile water and air-dried in a desiccator. When dry, the implants were directly analyzed by scanning electron microscopy (SEM) for quantitative and qualitative assessment of the number and nature of mineral precipitation foci present on their surfaces. The number of mineral forming units (mfu) on the surface directly corresponds to the number of mineral nucleation sites present on the surface during the experiments.
This is a strong indication that the synthetic peptide used here positively influence the formation of bone mineral deposition onto titanium surfaces.

[2] = Isoelectric point (pI) of the peptide; type: physicochemical
LDH activity [3] = assay: Wound fluid LDH activity at implant site, tresyl chloride coupled peptide, Example 5; type: in vivo, rabbits (New Zealand White); conditions: 4 weeks healing, vs control implants; tresyl chloride coupling
Method: The surface of the machined titanium implant was first covered with 10 μl of tresyl chloride (2,2,2-trifluoroethanesulfonyl chloride) and incubated at 37° C. for 2 days. Then, the tresylated titanium implant was washed with water, water-acetone (50:50), acetone, and dried in a desiccator.
Peptide solution (10 μl, 0.1 mg/ml) was applied to the surface of the titanium implant and incubated for 24 h at 37° C., then rinsed with water. Finally, implants were dried in a desiccator, packed and stored at 4° C.
(§1) The implants with consensus peptide coated surfaces (n=12) and controls (n=12) were placed in calibrated cortical bone defects in the tibia of rabbits (New Zealand White). A small central fenestration into the bone marrow beneath each implant was made to allow for migration of osteogenic cells to the implant surfaces. The methods used were all according to a standardized and validated model established for the study of bone attachment to titanium implant surfaces (Rønold and Ellingsen, 2002). Each rabbit received four implants, two in each tibia bone. Location of test and control implants was randomized and the operator was blinded. At four weeks after implantation the rabbits were sacrificed and the tibia bones with the implants attached were excised. […]
(§2) LDH activity and total protein was analysed in the wound fluid collected from the implant site following a 4 week healing period. […]

LDH activity [4] = assay: Wound fluid LDH activity at implant site, physically adsorbed peptide, Example 6; type: in vivo, rabbits (New Zealand White); conditions: 4 weeks healing, vs control implants; physical adsorption
Method: Peptides can be physically adsorbed onto a titanium surface, as an alternative method for covalent binding. Negatively charged carboxylic groups show a strong affinity for metal oxide surfaces and can therefore directly interact with the titanium surface (Imamura et al, 2007). Peptide solution (10 μl, 0.1 mg/ml) was applied to the surface of the titanium implant and incubated for 24 h at 37° C. After 24 h, titanium implants were rinsed and packed with the same method as described above. Control implants were treated with 10 μl of PBS without adding peptide.
as §1, with “blinded.” for “blinded. At four weeks after implantation the rabbits were sacrificed and the tibia bones with the implants attached were excised.”
as §2

Q: What does the source list for “PLV PSY PLV PSY PLV PSY PYP PLPP (PLVPSYPLVPSYPLVPSYPYPPLPP; Mineralization/biomineralization inducing peptide) [SEQ ID NO 3]”?
A: Number of mineral forming units (mfu) per square mm titanium surface assessed by SEM ([1]; individual peptide coated specimens, saturated calcium phosphate solution, 48 hours at 25 degrees Celsius): 5625 mfu mfu per square mm and Confluent (Values above 10.000 are recorded as “Confluent”) (4×) and 7744 mfu mfu per square mm and 9025 mfu mfu per square mm and 8100 mfu mfu per square mm; Number of mineral forming units (mfu) per square mm titanium surface assessed by SEM, mean values ([1]; mean of peptide coated specimens (n = 8)): >8812 mfu mfu per square mm; number of mineral deposition foci versus controls ([1]; peptide coated titanium specimens vs controls without peptide): significantly (p<0.01) increased; pI [2]: 5.82

Q: With “PLVPSQPLVPSQPLVPSQPQPPLPP [SEQ ID NO 4, PLV PSQ PLV PSQ PLV PSQ PQP PLPP]” as the substance, how does the “LDH activity in the periimplant tissue (wound fluid)” value (LDH activity [3]) read?
A: decrease

Q: And the “LDH activity in the periimplant tissue (wound fluid)” value (LDH activity [4])?
A: decrease
